Laboratory results published in patent US10117944B2, “Targeted therapeutics” (Madrigal Pharmaceuticals, Inc., priority 2014, dated 2018).
“And” between values parts separate entries of the source, which are not always exact repeats. Identical values can stand only once. Like-named read-outs stand apart in the source and are kept apart here. Blank lines part the entries; values can stand above or below the compound they belong to.

Assays:
[1] = Stability of SDC-TRAPs in mouse plasma; format: in vitro ADME; settings: 37° C.
Method: SDC-TRAPs were incubated in mouse plasma for 1 h at 37° C. and assayed for integrity at 0, 0.25, 0.5 and 1 h to assess the stability of the SDC-TRAP, e.g., as compared to the effector and targeting compounds. Compound stability was determined using […].

HER2 = HER2 degradation assay with BT-474 cell line; format: cell-based, human; settings: BT-474 cells, overnight incubation
[2] = Tissue distribution of ganetespib in female CD-1 nu/nu mice bearing RERF human NSCLC xenografts; format: in vivo; settings: IV 50 mg/kg; for concentration at 5 min / concentration at 24 h / concentration at 6 h: female, CD-1 nu/nu, mouse
Description: To confirm the distribution of ganetespib in blood, livers, kidneys, brains, hearts, lungs and tumors after IV administration of ganetespib to female CD-1 nu/nu mice bearing RERF human NSCLC xenografts, and to examine metabolic profiles of ganetespib in plasma, red blood cells, and above tissues.
Test Articles: ganetespib
Animals: female CD-1 nu/nu mice bearing RERF human NSCLC xenografts (N=3/group)
Formulation: 10% DMSO, 18% Cremophor RH40, 3.6% dextrose solution (DRD)
Bleeding time points: 5 min, 6, 24 hr
Collected tissues: blood (plasma and red blood cells (RBC)), liver, kidneys, brain, heart, lung, tumor
Protein precipitation: 50 μL of 10 times diluted plasma or RBC+150 μL ACN (10 mM NH4OAc), vortexed and centrifuged at 10000 rpm for 8 min; 150 μL supernatant+150 μL water (10 mM NH4OAc)
Protein precipitation: 100 μL homogenized tissue (1:3 tissue: PBS buffer)+100 μL ACN (10 mM NH4OAc), vortexed and centrifuged at 10000 rpm for 8 min

% Remaining (1 h) [1]: 25.5%
IC50 (HER2): 710 nM
SMILES: CC(C)C[C@H](NC(=O)[C@H](Cc1ccccc1)NC(=O)c1cnccn1)B1OC(C)(C)C(C)(c2ccc(C(=O)N3CCN(Cc4ccc(-n5c(O)nnc5-c5cc(C(C)C)c(O)cc5O)cc4)CC3)cc2)O1 (stereo partly drawn) [SDC-TRAP-0236, N-((2S)-1-(((1R)-1-(4-(4-(4-(4-(3-(2,4-dihydroxy-5-isopropylphenyl)-5-hydroxy-4H-1,2,4-triazol-4-yl)benzyl)piperazine-1-carbonyl)phenyl)-4,5,5-trimethyl-1,3,2-dioxaborolan-2-yl)-3-methylbutyl)amino)-1-oxo-3-phenylpropan-2-yl)pyrazine-2-carboxamide]

% Remaining (1 h) [1]: 84.2%
IC50 (HER2): > 5000 nM
SMILES: CC(C)C[C@H](NC(=O)[C@H](Cc1ccccc1)NC(=O)c1cnccn1)B1OC(C)(C)C(C)(c2ccc(C(=O)N3CCC(CCn4ccc5cc(-n6c(O)nnc6-c6cc(C(C)C)c(O)cc6O)ccc54)CC3)cc2)O1 (stereo partly drawn) [SDC-TRAP-0237, N-((2S)-1-(((1R)-1-(4-(4-(4-(2-(5-(3-(2,4-dihydroxy-5-isopropylphenyl)-5-hydroxy-4H-1,2,4-triazol-4-yl)-1H-indol-1-yl)ethyl)piperidine-1-carbonyl)phenyl)-4,5,5-trimethyl-1,3,2-dioxaborolan-2-yl)-3-methylbutyl)amino)-1-oxo-3-phenylpropan-2-yl)pyrazine-2-carboxamide]

% Remaining (1 h) [1]: 24.0%
IC50 (HER2): > 5000 nM
SMILES: CC(C)C[C@H](NC(=O)[C@H](Cc1ccccc1)NC(=O)c1cnccn1)B1OC(C)(C)C(C)(c2ccc(C(=O)N3CCN(c4ccc(-n5c(O)nnc5-c5cc(C(C)C)c(O)cc5O)cc4)CC3)cc2)O1 (stereo partly drawn) [SDC-TRAP-0238, N-((2S)-1-(((1R)-1-(4-(4-(4-(4-(3-(2,4-dihydroxy-5-isopropylphenyl)-5-hydroxy-4H-1,2,4-triazol-4-yl)phenyl)piperazine-1-carbonyl)phenyl)-4,5,5-trimethyl-1,3,2-dioxaborolan-2-yl)-3-methylbutyl)amino)-1-oxo-3-phenylpropan-2-yl)pyrazine-2-carboxamide]

% Remaining (1 h) [1]: 35.8%
IC50 (HER2): > 5000 nM
SMILES: CC(C)C[C@H](NC(=O)[C@H](Cc1ccccc1)NC(=O)c1cnccn1)B1OC(C)(C)C(C)(c2ccc(C(=O)N3CCc4ccc(-n5c(O)nnc5-c5cc(C(C)C)c(O)cc5O)cc4C3)cc2)O1 (stereo partly drawn) [SDC-TRAP-0239, N-((2S)-1-(((1R)-1-(4-(4-(7-(3-(2,4-dihydroxy-5-isopropylphenyl)-5-hydroxy-4H-1,2,4-triazol-4-yl)-1,2,3,4-tetrahydroisoquinoline-2-carbonyl)phenyl)-4,5,5-trimethyl-1,3,2-dioxaborolan-2-yl)-3-methylbutyl)amino)-1-oxo-3-phenylpropan-2-yl)pyrazine-2-carboxamide]

% Remaining (1 h) [1]: 84.0%
IC50 (HER2): > 5000 nM
SMILES: CCNC(=O)c1nnc(-c2cc(C(C)C)c(O)cc2O)n1-c1ccc2c(ccn2CCC2CCN(C(=O)c3ccc(C4(C)OB([C@H](CC(C)C)NC(=O)[C@H](Cc5ccccc5)NC(=O)c5cnccn5)OC4(C)C)cc3)CC2)c1 (stereo partly drawn) [SDC-TRAP-0240, N-((2S)-1-(((1R)-1-(4-(4-(4-(2-(5-(3-(2,4-dihydroxy-5-isopropylphenyl)-5-(ethylcarbamoyl)-4H-1,2,4-triazol-4-yl)-1H-indol-1-yl)ethyl)piperidine-1-carbonyl)phenyl)-4,5,5-trimethyl-1,3,2-dioxaborolan-2-yl)-3-methylbutyl)amino)-1-oxo-3-phenylpropan-2-yl)pyrazine-2-carboxamide]

IC50 (HER2): 407 nM
SMILES: CC(C)C[C@H](NC(=O)[C@H](Cc1ccccc1)NC(=O)c1cnccn1)B1OC(C)(C)C(C)(c2ccc(C(=O)N3CCC(COc4ccc(-n5c(O)nnc5-c5cc(C(C)C)c(O)cc5O)cc4)CC3)cc2)O1 (stereo partly drawn) [SDC-TRAP-0242, N-((2S)-1-(((1R)-1-(4-(4-(4-((4-(3-(2,4-dihydroxy-5-isopropylphenyl)-5-hydroxy-4H-1,2,4-triazol-4-yl)phenoxy)methyl)piperidine-1-carbonyl)phenyl)-4,5,5-trimethyl-1,3,2-dioxaborolan-2-yl)-3-methylbutyl)amino)-1-oxo-3-phenylpropan-2-yl)pyrazine-2-carboxamide]

% Remaining (1 h) [1]: 44.2%
SMILES: CC(C)C[C@H](NC(=O)[C@H](Cc1ccccc1)NC(=O)c1cnccn1)B1O[C@H]2C[C@H]3C[C@H](C3(C)C)[C@@]2(CC(=O)N2CCC(CCn3ccc4cc(-n5c(O)nnc5-c5cc(C(C)C)c(O)cc5O)ccc43)CC2)O1 [SDC-TRAP-0245, N—((S)-1-(((R)-1-((3aR,4R,6R,7aS)-3a-(2-(4-(2-(5-(3-(2,4-dihydroxy-5-isopropylphenyl)-5-hydroxy-4H-1,2,4-triazol-4-yl)-1H-indol-1-yl)ethyl)piperidin-1-yl)-2-oxoethyl)-5,5-dimethylhexahydro-4,6-methanobenzo[d][1,3,2]dioxaborol-2-yl)-3-methylbutyl)amino)-1-oxo-3-phenylpropan-2-yl)pyrazine-2-carboxamide]

% Remaining (1 h) [1]: 34%
SMILES: CCNC(=O)c1nnc(-c2cc(C(C)C)c(O)cc2O)n1-c1ccc(CN2CCC(C(=O)N3CCC4(CC3)OB([C@H](CC(C)C)NC(=O)[C@H](Cc3ccccc3)NC(=O)c3cnccn3)OC4(C)C)CC2)cc1 [SDC-TRAP-0252, N—((S)-1-(((R)-1-(8-(1-(4-(3-(2,4-dihydroxy-5-isopropylphenyl)-5-(ethylcarbamoyl)-4H-1,2,4-triazol-4-yl)benzyl)piperidine-4-carbonyl)-4,4-dimethyl-1,3-dioxa-8-aza-2-boraspiro[4.5]decan-2-yl)-3-methylbutyl)amino)-1-oxo-3-phenylpropan-2-yl)pyrazine-2-carboxamide]

Mean concentration in plasma relative to that in RBC ([2]; 5 min): about 10 times
Concentration in tumor ([2]; 5 min, tumor): 2350 nM
Concentration in plasma ([2]; 24 hr, plasma): <LLOQ
concentration at 5 min ([2]; red blood cells, 5 min, RBC, read-out: Concentration in RBC): 6000 ng/mL and 16.5 µM
concentration at 24 h ([2]; red blood cells, 24 hr, RBC, read-out: Concentration in RBC): 3 ng/mL and 7 nM
concentration at 5 min ([2]; 5 min, brain, read-out: Concentration in brain): 530 nM and 190 ng/g
concentration at 5 min ([2]; 5 min, heart, read-out: Concentration in heart): 36.2 µM and 13200 ng/g
concentration at 5 min ([2]; 5 min, kidneys, read-out: Concentration in kidneys): 57.8 µM and 21100 ng/g
concentration at 5 min ([2]; 5 min, liver, read-out: Concentration in liver): 46.3 µM and 16900 ng/g
concentration at 5 min ([2]; 5 min, lung, read-out: Concentration in lung): 9240 ng/g and 25.4 µM
concentration at 5 min ([2]; 5 min, plasma, read-out: Concentration in plasma): 160 µM and 58400 ng/mL
concentration at 5 min ([2]; 5 min, tumor, read-out: Concentration in tumor): 860 ng/g and 2.35 µM
concentration at 6 h ([2]; brain, read-out: Concentration in brain): 70 ng/g and 180 nM
concentration at 6 h ([2]; heart, read-out: Concentration in heart): 50 ng/g and 130 nM
concentration at 6 h ([2]; kidneys, read-out: Concentration in kidneys): 60 ng/g and 150 nM
concentration at 6 h ([2]; liver, read-out: Concentration in liver): 140 ng/g and 390 nM
concentration at 6 h ([2]; lung, read-out: Concentration in lung): 50 ng/g and 140 nM
concentration at 6 h ([2]; plasma, read-out: Concentration in plasma): 120 nM and 40 ng/mL
concentration at 6 h ([2]; tumor, read-out: Concentration in tumor): 290 ng/g and 800 nM
concentration at 24 h ([2]; 24 hr, brain, read-out: Concentration in brain): 40 ng/g and 120 nM
concentration at 24 h ([2]; 24 hr, heart, read-out: Concentration in heart): 0 ng/g and 0 nM
concentration at 24 h ([2]; 24 hr, kidneys, read-out: Concentration in kidneys): 10 ng/g and 20 nM
concentration at 24 h ([2]; 24 hr, liver, read-out: Concentration in liver): 5 ng/g and 10 nM
concentration at 24 h ([2]; 24 hr, lung, read-out: Concentration in lung): 0 ng/g and 5 nM
concentration at 24 h ([2]; 24 hr, plasma, read-out: Plasma concentration (below the lower limit of quantitation)): < 2.5 nM
concentration at 24 h ([2]; 24 hr, tumor, read-out: Concentration in tumor): 850 nM and 310 ng/g
SMILES: CC(C)c1cc(-c2n[nH]c(=O)n2-c2ccc3c(ccn3C)c2)c(O)cc1O [ganetespib]
